Experiment [1] deals with γ-secretase. In words: Screening for γ-secretase-modulating activity, Aβ 42 in SKNBE2 cells carrying APP 695-wild type. The format is cell-based. The settings on record: for EC50: read-out: WTAPP SKNBE2 Aβ 42 EC50. Here is the method: Screening of the Compounds of the Invention for γ-Secretase-Modulating Activity
Screening was carried out using SKNBE2 cells carrying the APP 695-wild type, grown in DMEM/NUT-mix F12 (HAM) provided by Gibco (cat no. 31330-38) containing 5% Serum/Fe supplemented with 1% non-essential amino acids.
Cells were grown to near confluency.
The screening was performed using the assay as described in Citron et al (1997) Nature Medicine 3: 67.
IC50-Values of Selected Compounds of the Invention on the γ-Secretase Activity.

Experiment [2] relates to Aβ 42. In words: In vivo Aβ 42 lowering, mouse. The settings on record: oral dose 30 mg/kg at 4 hr time point. From the text: (§1) To determine whether acute administration of an Aβ42 lowering agent would reduce Aβ42 levels in vivo, non-transgenic rodents, e.g. mice or rats can be used. Alternatively, two to three month old Tg2576 mice expressing APP695 containing the “Swedish” variant can be used or a transgenic mouse model developed by Dr. Fred Van Leuven (K. U. Leuven, Belgium) and co-workers, with neuron-specific expression of a clinical mutant of the human amyloid precursor protein [V717I] (Moechars et al., 1999 J. Biol. Chem. 274, 6483). […] Animals of this age have high levels of Aβ in the brain but no detectable Aβ deposition. Mice treated with the Aβ42 lowering agent will be examined and compared to those untreated or treated with vehicle and brain levels of soluble Aβ42 and total Aβ would be quantitated by standard techniques, for example, using ELISA. Treatment periods may vary from hours to days and will be adjusted based on the results of the Aβ42 lowering once a time course of onset of effect can be established.
A typical protocol for measuring Aβ42 lowering in vivo is shown but it is only one of many variations that could be used to optimize the levels of detectable Aβ. For example, aliquots of compounds can be dissolved in DMSO (volume equal to 1/10th of the final formulation volume), vortexed and further diluted (1:10) with a 10% (w/v) hydroxypropyl β cyclodextrin (HBC, Aldrich, Ref No 33,260-7) solution in PBS, where after they are sonicated for 20 seconds.
Aβ42 lowering agents may be administered as a single oral dose given three to four hours before sacrifice and analysis or alternatively could be given over a course of days and the animals sacrificed three to four hours after the final dose is given.
Blood is collected at sacrifice. The blood collection is performed via a heart puncture during anesthesia with a mixture of Ketalar (Ketamin), Rompun (Xylazin 2%) and Atropin (2:1:1) and collected in EDTA treated collection tubes. Blood is centrifuged at 4000 g for 5 minutes at 4° C. and the plasma recovered for analysis. […]

Experiment [3] has as its system Aβ 42. In words: In vivo Aβ 42 lowering, rat. The conditions noted are these: oral dose 30 mg/kg at 4 hr time point.
From the text: as §1
A typical protocol for measuring Aβ42 lowering in vivo is shown but it is only one of many variations that could be used to optimize the levels of detectable Aβ. […]

Usually EC50 stands for the concentration needed to bring the measured effect to its halfway point. Regarding `CC(C)CC(C(=O)O)c1cc(Oc2cc(F)cc(C(F)(F)F)c2)cc(-c2ccc(C(F)(F)F)cc2)c1` (stereo not shown) [Compound 30, 2-[5-(3-Fluoro-5-trifluoromethyl-phenoxy)-4′-trifluoromethyl-biphenyl-3-yl]-4-methyl-pentanoic acid], the EC50 in experiment [1] came to 0.33 µM. The “Mouse Efficacy % Lowering Aβ 42” value in experiment [2] turned out to be 43%.
For the compound `CC(C)CC(C(=O)O)c1cc(Oc2cc(F)cc(C(F)(F)F)c2)cc(-c2ccc(Cl)c(C(F)(F)F)c2)c1` (stereo not shown) [Compound 21, 4-Methyl-2-[4′-chloro-3′-trifluoromethyl-5-(3-fluoro-5-trifluoromethylphenoxy)-biphenyl-3-yl]-pentanoic acid], the concentration giving a half-maximal response (EC50) in experiment [1] was 0.14 µM. In experiment [2], the “Mouse Efficacy % Lowering Aβ 42” value stood at 25%.
For the compound `CC(C)C[C@@H](C(=O)O)c1cc(Nc2cc(C(F)(F)F)ccc2C(F)(F)F)cc(-c2ccc(C(F)(F)F)cc2)c1` [Compound 46, (R)2-[5-(2,5-Bis-trifluoromethyl-phenylamino)-4′-trifluoromethyl-biphenyl-3-yl]-4-methyl-pentanoic acid], in experiment [1], the 50% effective concentration (EC50) was 0.1 µM. Besides, the “Rat Efficacy % Lowering Aβ 42” value in experiment [3] stood at 30%. Also, the “Mouse Efficacy % Lowering Aβ 42” value in experiment [2] is 18%.
For `CC(C)CC(C(=O)O)c1cc(Nc2ccc(F)cc2C(F)(F)F)cc(-c2ccc(C(F)(F)F)cc2)c1` (stereo not shown) [Compound 9, 2-[5-(4-Fluoro-2-trifluoromethyl-phenylamino)-4′-trifluoromethyl-biphenyl-3-yl]-4-methyl-pentanoic acid], the 50% effective concentration (EC50) in experiment [1] came out at 0.28 µM.
Same read-out and setting: with `CC(C)CC(C(=O)O)c1cc(Nc2cc(C(F)(F)F)ccc2C(F)(F)F)cc(-c2ccc(C(F)(F)F)cc2)c1` (stereo not shown) [Compound 8, 2-[5-(2,5-Bis-trifluoromethyl-phenylamino)-4′-trifluoromethyl-biphenyl-3-yl]-4-methyl-pentanoic acid] the figure was 0.2 µM.
On to `CC(C)CC(C(=O)O)c1cc(Nc2ccc(C#N)cc2)cc(-c2ccc(C(F)(F)F)cc2)c1` (stereo not shown) [Compound 13, 2-[5-(4-Cyano-phenylamino)-4′-trifluoromethyl-biphenyl-3-yl]-4-methyl-pentanoic acid], for which the “WTAPP SKNBE2 Aβ 42 % Inhibition at 3 μM” value in experiment [1] turned out to be 52%.
Still for that read-out and setting: with `CC(C)CC(C(=O)O)c1cc(Nc2ccc(F)cc2F)cc(-c2ccc(C(F)(F)F)cc2)c1` (stereo not shown) [Compound 2, 2-[5-(2,4-Difluoro-phenylamino)-4′-trifluoromethyl-biphenyl-3-yl]-4-methyl-pentanoic acid] the figure was 62%; with `CC(C)CC(C(=O)O)c1cc(Oc2cc(F)cc(F)c2)cc(-c2ccc(Cl)c(C(F)(F)F)c2)c1` (stereo not shown) [Compound 23, 4-Methyl-2-[4′-chloro-3′-trifluoromethyl-5-(3,5-difluorophenoxy)-biphenyl-3-yl]-pentanoic acid], 80%.
In the case of `CC(C)CC(C(=O)O)c1cc(Oc2cc(F)cc(C(F)(F)F)c2)cc(-c2cc(C(F)(F)F)cc(C(F)(F)F)c2)c1` (stereo not shown) [Compound 34, 2-[5-(3-Fluoro-5-trifluoromethyl-phenoxy)-3′,5′-bis-trifluoromethyl-biphenyl-3-yl]-4-methyl-pentanoic acid], the EC50 in experiment [1] amounted to 0.26 µM.
Take `CC(C)CC(C(=O)O)c1cc(Nc2cc(Cl)cc(Cl)c2)cc(-c2ccc(C(F)(F)F)cc2)c1` (stereo not shown) [Compound 7, 2-[5-(3,5-Dichloro-phenylamino)-4′-trifluoromethyl-biphenyl-3-yl]-4-methyl-pentanoic acid]: in experiment [1], the EC50 came to 0.42 µM.
Turning to `CC(C)CC(C(=O)O)c1cc(Oc2cc(F)c(F)c(F)c2)cc(-c2ccc(C(F)(F)F)cc2)c1` (stereo not shown) [Compound 17, 4-Methyl-2-[4′-trifluoromethyl-5-(3,4,5-trifluoro-phenoxy)-biphenyl-3-yl]-pentanoic acid], the EC50 in experiment [1] worked out at 1.85 µM.
For the compound `COc1ccc(Oc2cc(-c3ccc(C(F)(F)F)cc3)cc(C(CC(C)C)C(=O)O)c2)cc1C(F)(F)F` (stereo not shown) [Compound 19, 2-[5-(4-Methoxy-3-trifluoromethyl-phenoxy)-4′-trifluoromethyl-biphenyl-3-yl]-4-methyl-pentanoic acid], the “WTAPP SKNBE2 Aβ 42 % Inhibition at 3 μM” value in experiment [1] is recorded as 22%.
As to `CC(C)CC(C(=O)O)c1cc(Oc2cccc(F)c2)cc(-c2ccc(C(F)(F)F)cc2)c1` (stereo not shown) [Compound 26, 2-[5-(3-Fluoro-phenoxy)-4′-trifluoromethyl-biphenyl-3-yl]-4-methyl-pentanoic acid], in experiment [1], the “WTAPP SKNBE2 Aβ 42 % Inhibition at 3 μM” value is 58%.
Same read-out and setting: with `CC(C)CC(C(=O)O)c1cc(Oc2cc(F)cc(F)c2)cc(-c2cc(C(F)(F)F)cc(C(F)(F)F)c2)c1` (stereo not shown) [Compound 36, 2-[5-(3,5-Difluoro-phenoxy)-3′,5′-bis-trifluoromethyl-biphenyl-3-yl]-4-methyl-pentanoic acid] the figure was 90%; with `CC(C)CC(C(=O)O)c1cc(Nc2cc(C(F)(F)F)cc(C(F)(F)F)c2)cc(-c2cc(F)cc(C(F)(F)F)c2)c1` (stereo not shown) [Compound 42, 2-[5′-Fluoro-5-(3,5-bis-trifluoromethyl-phenylamino)-3′-trifluoromethyl-biphenyl-3-yl]-4-methyl-pentanoic acid], 75%.

These data come from patent US7557244B2, “Substituted biphenyl carboxylic acids and derivatives thereof” (Ortho-McNeil Pharmaceutical, Inc., priority 2006, dated 2009).
